Assay results reported in patent US5804553A, “Prophenins - antibiotic peptides” (University of California, priority 1994, dated 1998).
Where no end group is shown, it is not given here.

B1: Prophenin-1: 79-residue proline-rich antimicrobial peptide purified from porcine leukocytes; sequence SEQ ID NO:1 (b87-b94, FIG. 3) (peptide)
chain: AFPPPNVPGPRFPPPNFPGPRFPPPNFPGPRFPPPNFPGPRFPPPNFPGPPFPPPIFPGPWFPPPPPFRPPPFGPPRFP

Columns and labels:
C. albicans, strain 820 = experiment: radial diffusion assay in agarose gels; format: cell-based; settings: for inhibitory activity (FIG. 4c): at reasonable concentrations; for minimal microbicidal concentration: Table 2
Protocol: (§1) Aliquots (66 μl) of each fraction were dried by vacuum centrifugation, and resuspended in approximately 6.6 μl of 0.01% acetic acid. Five μl samples of this concentrate were tested for antimicrobial activity against E. coli ML-35, L. monocytogenes, Strain EGD and C. albicans, strain 820 by radial diffusion and gel overlay techniques (Lehrer, R. I. et al. J Immunol Meth (1991) 137:167-173). Active fractions were further examined by acid-urea PAGE and SDS-PAGE. Prophenins emerged from the P10 column in fractions 38-43 (39.6 ml total volume), which contained a total of 18 mg protein by BCA analysis.
(§2) The radial diffusion assay in agarose gels as described above was also used to test the activity of the purified prophenins. Samples of 5 μL each were added to 3 mm wells in thin gels composed of 10 mM sodium phosphate, 30 mg/ml trypticase soy broth powder in 1% agarose and containing approximately 4×10^5 CFU/ml of mid-log phase organisms. After allowing 3 hours for the samples to diffuse into the underlayer gel, a nutrient-rich overlay gel was poured and the plates were incubated for 24 hours at 37° C. to allow surviving organisms to form microcolonies. The diameters of the clear zones were measured and expressed in "units" (10 units=1 mm) as. described previously.

E. coli ML-35 = experiment: radial diffusion assay in agarose gels; format: cell-based; settings: for minimal microbicidal concentration: E. coli, Table 2; for inhibitory activity (FIG. 4a): E. coli ML-35
Protocol: as §1, §2

[1] = system: L. monocytogenes, Strain EGD; experiment: radial diffusion assay in agarose gels; format: cell-based; settings: for minimal microbicidal concentration: Table 2
Protocol: as §1, §2

[2] = system: lipid polysaccharide (LPS) of the Gram-negative bacterium E. coli strain 0.55B5; experiment: Limulus amebocyte lysate (LAL) test for endotoxin binding; format: biochemical; parameters: key to LAL gel formation: ++ signifies a solid gel (no inhibition); + indicates increased viscosity without solid gel formation (partial inhibition); 0 indicates that gelation was absent (complete inhibition); settings: for concentration giving complete inhibition of LAL gelation / LAL gel formation: LPS 0.05 endotoxin unit/ml; for LAL gel formation: Table 3; for concentration giving complete inhibition of LAL gelation, molar: converted from μg/ml
Protocol: The prophenins of the invention were tested for their ability to bind the lipid polysaccharide (LPS) of the Gram-negative bacterium E. coli strain 0.55B5. The assay was the Limulus amebocyte lysate (LAL) test for endotoxins conducted in the presence and absence of the test compounds. The test was conducted using the procedure described in Sigma Technical Bulletin No. 210 as revised in December 1992 and published by Sigma Chemical Company, St. Louis, Mo.
The LAL test is based on the ability of LPS to effect gelation in the commercial reagent E-TOXATE ™ which is prepared from the lysate of circulating amebocytes of the Horseshoe Crab Limulus polyphemus. As described in the technical bulletin, when exposed to minute quantities of LPS, the lysate increases in opacity as well as viscosity and may gel or clot depending on the concentration of endotoxin. The technical bulletin goes on to speculate that the mechanism appears analogous to the clotting of mammalian blood and involves the steps of activation of a trypsin-like preclotting enzymes by the LPS in the presence of calcium ion, followed by enzymic modifications of a "coagulogen" by proteolysis to produce a clottable protein. These steps are believed tied to the biologically active or "pyrogenic" portion of the molecule. It has been shown previously that detoxified LPS (or endotoxin) gives a negative LAL test.
Polymyxin B is a cyclic 1.2 kD acylated […] obtained from Bacillus polymyxa. Polymyxin B was used as a positive control since it is known to inhibit LPS-induced Limulus hemocyte lysate clotting.
In the assay, the amounts of prophenin-1 and polymyxin B (78% free polymyxin, Sigma) were preincubated in a final volume of 0.2 ml and the test mixtures contained LPS at a final concentration of 0.05 endotoxin unit/ml and E-TOXATE™ at the same concentration. The test compounds were incubated together with the LPS for 15 minutes before the E-TOXATE™ was added to a final volume (after E-TOXATE™ addition) of 0.2 ml. The tubes were then incubated for 60 minutes at 37° C. and examined for the formation of a gel.

| Molecule | inhibitory activity (FIG. 4c) (C. albicans, strain 820) | minimal microbicidal concentration (E. coli ML-35) | minimal microbicidal concentration (C. albicans, strain 820) | minimal microbicidal concentration [1] | inhibitory activity (FIG. 4a) (E. coli ML-35) | concentration giving complete inhibition of LAL gelation [2] | LAL gel formation ([2]; peptide 0.16 μg/ml) | LAL gel formation ([2]; peptide 0.31 μg/ml) | LAL gel formation ([2]; peptide 0.63 μg/ml) | LAL gel formation ([2]; peptide 1.25 μg/ml) | LAL gel formation ([2]; peptide 2.5 μg/ml) | LAL gel formation ([2]; peptide 5.0 μg/ml) | LAL gel formation ([2]; peptide 10.0 μg/ml) | concentration giving complete inhibition of LAL gelation, molar [2] | specificity for Gram-negative bacteria (E. coli ML-35; from Table 2, E. coli versus L. monocytogenes and C. albicans) | concentrations at which some activity was shown (FIG. 4b) [1] | inhibitory activity (FIG. 4b) ([1]; versus the other three antibiotic peptides) | effective concentration in inhibiting LPS ([2]; intact molecule) |
| --- | --- | --- | --- | --- | --- | --- | --- | --- | --- | --- | --- | --- | --- | --- | --- | --- | --- | --- |
| HNP-1: human defensin (HNP-1), used as control | substantially noninhibitory | – | – | – | – | – | – | – | – | – | – | – | – | – | – | – | – | – |
| HNP-2: control peptide as headed in Table 2; the text names human defensin HNP-1 (CYCRIPACIAGERRYGTCIYQGRLWAFCC; ends and bridges not checked; cysteine pairing not given here; UniProt P59665 66-94, looked up) | – | 80.0 µg/mL | > 150 µg/mL | 12.0 µg/mL | – | – | – | – | – | – | – | – | – | – | – | – | – | – |
| PG-3: protegrin-3 (PG3), used as control (RGGGLCYCRRRFCVCVGR; ends and bridges not checked; cysteine pairing not given here; UniProt P32196 131-148, looked up) | successful antifungals | 8.6 µg/mL | 6.9 µg/mL | 9.0 µg/mL | more inhibitory than HNP-1 | – | – | – | – | – | – | – | – | – | – | – | – | – |
| Polymyxin B | – | – | – | – | – | 5 µg/mL | ++ | ++ | ++ | ++ | + | 0 | 0 | ≈ 4.2 μM | – | – | – | – |
| B1 | substantially noninhibitory | 15.2 µg/mL | > 150 µg/mL | 122.2 µg/mL | comparable in inhibitory activity to PG3 and NP1 | 0.625 µg/mL | ++ | ++ | 0 | 0 | 0 | 0 | – | ≈ 72 nM | highly specific for Gram-negative bacteria | above 100 μg/ml | substantially less inhibitory | 35 to 70 nM |
